# Data reported in patent US8748097B1, “Identification of agents for treating calcium disorders and uses thereof” (President and Fellows of Harvard College, priority 2011, dated 2014).
# Where two headings read alike, the source gives them in different places.
# Columns and labels:
# [1] = system: RAW 264.7 macrophages
# Description: (§1) GFP positive cells were treated with a shRNA designed to target and disrupt GFP expression (transfection control), while wild-type cells were treated with one of two shRNA constructs (TBONE—1 and TBONE—2) designed to target and disrupt expression of Apr3.
# [2] = system: RANKL mRNA in ST-2 osteoblast cells
# Description: as §1
# [3] = system: NFATc1 mRNA; experiment: A23187-induced NFATc1 expression; format: cell-based; settings: C2orf28 deficient cells vs control; 1 μM A23187, 12 hours
# Description: FIG. 13. A23187-induced NFATc1 Expression. Control and C2orf28 deficient cells were treated for 12 hours with 1 μM A23187. After 12 hours, relative levels of NFATc1 mRNA expression were measured.
# Total RNA was isolated and reverse-transcription was performed from cells grown in the indicated conditions. The resulting cDNA was diluted in DNase-free water (1:20) followed by quantification by real-time PCR. Data is expressed as the ratio between the expression of the target gene to the housekeeping gene, 18s. Each treated sample was normalized to the level of the vehicle controls of the same cell type. The following primers were used for quantitative real-time PCR: […]
# [4] = system: HEK-293T; settings: HEK-293T with C2orf28 depletion using RNAi; data not shown
# [5] = system: alkaline phosphatase (ALPL); settings: TBONE deficient cells vs GFP control; 10 nM Alendronate
# Description: (§2) Briefly, GFP control and TBONE knockdown cells were generated and subjected to differentiation as described above. Following the two week incubation, cells were treated with 10 nM Alendronate (exemplary NBP) or vehicle and analyzed by real-time RT-PCR using TBONE, OC and BSP gene specific oligonucleotide primers (FIG. 15). Alkaline phosphatase activity was measured using a colorimetric based assay designed to indicate ALPL activity by changing color following the dephosphorylation of p-nitrophenyl phosphate (pNPP) (FIG. 16).
# [6] = system: Rapla prenylation; settings: indicated dose of Alendronate, 72 hours
# Description: (§3) FIG. 8. Effect of Nitrogenous Bisphosphonates on Prenylation. Cells containing (WT) or lacking C2orf28 (C2orf28_GT2) were treated with Alendronate at the indicated dose ((−) indicates no Alendronate). After 72 hours the cells were analyzed by immunoblotting for the indicated proteins.
# (§4) Therefore, to determine whether C2orf28 is involved with NBPs mediated protein prenylation, the inventors' monitored the prenylation of several known prenylated proteins including the heat shock protein DnaJ (Hsp40) homolog, HDJ-2, and the Ras family GTPase, Rapla. Cells containing or lacking C2orf28 were treated with the indicated dose of Alendronate for 72 hours then lysed and analyzed by immunoblotting for the indicated proteins.
# (§5) Cells were pelleted by centrifugation at 9,000 rpm for 30 seconds, rinsed once with ice-cold PBS and lysed with Triton-X 100 containing lysis buffer (40 mM HEPES [pH 7.4], 2 mM EDTA, 150 mM NaCl, 50 mM NaF, 1% Triton-X 100, and one tablet of EDTA-free protease inhibitors [Roche] per 25 ml). The soluble fractions of cell lysates were isolated by centrifugation at 13,000 rpm for 10 minutes in a microcentrifuge. Lysate protein concentrations were normalized by Bradford assay (Bio-Rad). Proteins were then denatured by the addition of sample buffer and by boiling for 5 minutes, resolved using 4%-20% SDS-PAGE (Invitrogen), and analyzed by immunoblotting.
# [7] = system: HDJ-2 prenylation; settings: indicated dose of Alendronate, 72 hours
# Description: as §3, §4, §5
# [8] = system: cells containing or lacking C2orf28; settings: C2orf28 deficient vs C2orf28-complemented cells; 75 μM fluorophore conjugated H^3-labeled Alendronate plus 60 μM cold, 60 hours
# Description: The volume was made up to 1 ml with distilled water and the solution incubated for 2 hours at room temperature with mixing.
# [9] = molecular target: HA tagged C2orf28 variant 2 (Homo sapiens, UniProt Q6UW56); settings: MC3T3-E1 pre-osteoblasts expressing HA tagged C2orf28 variant 2; 7504 fluorophore conjugated Alendronate
# Description: Sub-cellular Localization. […] Cells were processed in an immunofluorescence assay.
# Following incubation, the cells were washed, and processed in an immunofluorescence assay to detect HA and Alendronate, along with DAPI to visualize DNA content.
# 25,000-100,000 cells were plated on fibronectin-coated glass coverslips, fixed with 4% paraformaldehyde, and permeabilized with 0.2% Triton X-100. Permeabilized cells were blocked in 0.25% BSA PBS, incubated with primary antibody in blocking buffer overnight at 4° C. and subsequently incubated with secondary antibodies (diluted in blocking buffer 1:1000) for one hour at room temperature. 2-4×PBS washes were used in between all preceding steps. The coverslips were mounted on glass slides using Vectashield containing DAPI (Vector Laboratories) and imaged with 63× objective using epifluorescence microscopy.
# [10] = system: MC3T3-e1 cells
# Description: FIG. 15. Basal and NBP-potentiated osteoblastic gene expression. shNA-mediated TBONE knockdown (TBONE—1 and TBONE—2) and transfection control (GFP) cells were treated with 10 nM Alendronte or vehicle and analyzed using real-time RT-PCR for mRNA expression of (A) TBONE, (B) osteocalcin (OC), and (C) bone sialoprotein (BSP).
# Since NBPs and calcium potentially play an important role in regulating osteoblast function, studies were performed to evaluate the role of TBONE in osteoblast differentiation. For the experiment, wild-type and GFP positive MC3T3-e1 cells were transiently transfected with small-hairpin RNA (shRNA). GFP positive cells were treated with a shRNA designed to target and disrupt GFP expression (transfection control), while wild-type cells were treated with one of two shRNA constructs (TBONE—1 and TBONE—2) designed to target and disrupt expression of Apr3. The cells were then subjected to conditions for promoting osteoblast differentiation, 50 μg/ml ascorbic acid and 10 mM B-glycerophosphate for 2 weeks, and analyzed for extracellular calcium deposition using Alizarin Red or phosphate deposition using the Von Kossa method.
# as §2
# [11] = system: KBM7 cells
# Description: (§6) All measurements were performed in quadruplicate.
# as §6
# [12] = system: RAW 264.7 macrophages; experiment: RANKL-mediated induction of TRAP activity in RAW 264.7 macrophages; format: cell-based; settings: TBONE knockdown RAW 264.7 macrophages; 50 ng/ml RANKL, 5 days
# Excerpt: In order to determine if TBONE plays a role in directly regulating osteoclastogensis, TBONE was knockdown in macrophages to evaluate its potential effect on RANKL stimulated differentiation; by monitoring lineage specific surface marker expression of the calcitonin receptor (CALCR), a well-established indicator of osteoclast activity (J. Lam et al., (2000) J Clin Invest: 106, 1481; D. L. Lacey et al., (1998), Cell: 93, 165; and C. Minkin, (1982), Calcif Tissue Int: 34, 285; all of which are hereby incorporated by reference). Briefly, wild-type and GFP positive RAW 264.7 macrophages cells were transiently transfected with shRNA to knockdown GFP and Arp3 as described above. The cells were treated with 50 ng/ml RANKL for 5 days. […] Second, cells were analyzed for tartrate-resistant acid phosphatase (TRAP) activity.
# [13] = C2orf28 deficient cells (C2orf28_GT2)
# [14] = TBONE deficient cells vs GFP control, 10 nM Alendronate
# Sequence of HA tagged C2orf28 variant 2 (Q6UW56 1-284 isoform Q6UW56-3): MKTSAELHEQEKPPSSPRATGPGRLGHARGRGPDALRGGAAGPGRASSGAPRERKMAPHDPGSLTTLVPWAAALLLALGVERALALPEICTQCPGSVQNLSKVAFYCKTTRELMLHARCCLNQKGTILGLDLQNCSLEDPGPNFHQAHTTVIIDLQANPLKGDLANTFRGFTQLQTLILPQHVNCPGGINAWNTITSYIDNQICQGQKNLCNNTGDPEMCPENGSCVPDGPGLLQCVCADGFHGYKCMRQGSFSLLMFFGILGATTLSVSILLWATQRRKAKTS
molecule,measurement,setting,value
Vitamin D,Vitamin D stimulated osteoclastogenesis (TRAP activity),"[1]; TBONE knockdown ST-2 cells co-cultured with RAW 264.7 macrophages, 100 nM Vitamin D",largely blocked
same,RANKL mRNA induction by Vitamin D,"[2]; TBONE knockdown ST-2 cells (TBONE—1 and TBONE—2) vs GFP control, 100 nM Vitamin D",impaired RANKL mRNA induction
CNc1ccc2oc(C[C@H]3O[C@@]4(CC[C@H]3C)O[C@H]([C@H](C)C(=O)c3ccc[nH]3)[C@H](C)C[C@H]4C)nc2c1C(=O)O [A23187],A23187-induced NFATc1 gene expression,[3],defective
NCCCC(O)(P(=O)(O)O)P(=O)(O)O [Alendronate],Vitamin D stimulated osteoclastogenesis (TRAP activity),"[1]; ST-2 cells treated with 100 nM Vitamin D and Alendronate, co-cultured with RAW 264.7 macrophages",reduced TRAP activity
same,RANKL mRNA induction by Vitamin D,"[2]; wild-type ST-2 cells, 100 nM Vitamin D plus increasing concentration of Alendronate, vs control","impaired RANKL mRNA induction by Vitamin D, in a dose dependent fashion"
same,Anti-proliferative effects,[4],strong resistance
same,NBP-stimulated ALPL (alkaline phosphatase activity),[5],fail to demonstrate an increase in basal or NBP-stimulated gene expression
same,Rapla prenylation,[6]; [13],no effect
same,Rapla prenylation,[6]; cells containing C2orf28 (WT),impaired both HDJ-2 and Rapla prenylation in a dose dependent manner
same,HDJ-2 prenylation,[7]; [13],no effect
same,HDJ-2 prenylation,[7]; cells containing C2orf28 (WT),impaired both HDJ-2 and Rapla prenylation in a dose dependent manner
same,Cellular Alendronate accumulation,[8],altered cellular Alendronate accumulation
same,Colocalization of Alendronate and C2orf28 co-staining,[9],high degree of colocalization
same,Relative TBONE mRNA expression,"[10]; GFP control cells, 10 nM Alendronate vs vehicle",increase in relative TBONE expression
same,NBP-stimulated gene expression of bone sialoprotein (BSP),[10]; [14],fail to demonstrate an increase in basal or NBP-stimulated gene expression
same,NBP-stimulated gene expression of osteocalcin (OC),[10]; [14],fail to demonstrate an increase in basal or NBP-stimulated gene expression
same,NBP-stimulated induction of TBONE mRNA,"[10]; TBONE knockdown cells (TBONE—1 and TBONE—2), 10 nM Alendronate",fail to demonstrate a NBP-stimulated induction of TBONE
same,"Cell viability (cellular ATP, ratio to untreated cells)","[11]; C2orf28_GT2 cells expressing C2orf28 variant 2 lacking the transmembrane domain, 0, 60 or 9004, 72 hours",resistant
same,"Cell viability (cellular ATP, ratio to untreated cells)","[11]; C2orf28_GT2 cells expressing full-length C2orf28 variant 2, 0, 60 or 9004, 72 hours",sensitive
same,"Cell viability (cellular ATP, ratio to untreated cells)","[11]; C2orf28 mutant cells with exogenous C2orf28 variant 2 or variant 3, 60 μM, 72 hours",as sensitive to Alendronate as wild-type KBM7 cells
"RANKL: regulatory molecule stimulating osteoclast differentiation and function (protein, UniProt O14788 140-317, looked up) Tumor necrosis factor ligand …: IRAEKAMVDGSWLDLAKRSKLEAQPFAHLTINATDIPSGSHKVSLSSWYHDRGWAKISNMTFSNGKLIVNQDGFYYLYANICFRHHETSGDLATEYLQLMVYVTKTSIKIPSSHTLMKGGSTKYWSGNSEFHFYSINVGGFFKLRSGEEISIEVSNPSLLDPDQDATYFGAFKVRDID",RANKL-mediated TRAP activity,[12],strongly impairs
